The subject of series [1] is PC3-mice. Description: Biodistribution in PC3-mice incl. blocking. It counts as in vivo, mouse. To be noted: PC3-model. As for the experimental part:
Male athymic Balb/C nude mice (6 weeks/20–25 g) were implanted with PC3 cells (3.5 × 10^6/100 µL PBS) into their right shoulder to develop tumors. The animals were used for biodistribution and PET/SPECT/CT imaging studies, once tumors reached 250–300 mm^3.
All mice were euthanized with intraperitoneal injection of pentobarbital (150 mg/kg), and selected organs were dissected, weighed, and measured for radioactivity using a gamma-counter. Results are expressed as % injected activity per gram tissue (% I.A./g), presented as mean ± SD (n = 3–4).

The subject of series [2] is FAP. On the set-up: method as in Martin et al. 2023 (15). To be noted: enzymatic assay; ref Martin et al. 2023 (15); cited from earlier work.
Series [3] deals with PREP. On the set-up: method as in Martin et al. 2023 (15). To be noted: ref Martin et al. 2023 (15); cited from earlier work.
Series [4] relates to DPP4. Also on record: method as in Martin et al. 2023 (15). The following applies: ref Martin et al. 2023 (15); cited from earlier work.
For series [5], the system named is DPP8. On the set-up: method as in Martin et al. 2023 (15). The following applies: ref Martin et al. 2023 (15); cited from earlier work.
For series [6], the system named is DPP9. Also on record: method as in Martin et al. 2023 (15). To be noted: ref Martin et al. 2023 (15); cited from earlier work.

Data on two compounds can be found in publication PMC12860872, “Preclinical evaluation of DOTAGA.Glu.(FAPI)2 and DO3A.Glu.(FAPI)2 as theranostics with human dosimetry extrapolation to lutetium-177 and terbium-161 analogs” (European Journal of Nuclear Medicine and Molecular Imaging, 2025).

Usually IC50 stands for the midpoint of a concentration-inhibition curve.

`N#C[C@@H]1CC(F)(F)CN1C(=O)CNC(=O)c1ccnc2ccc(OCCCCNC(=O)CC[C@H](NC(=O)CN3CCN(CC(=O)O)CCN(CC(=O)O)CCN(CC(=O)O)CC3)C(=O)NCCCCOc3ccc4nccc(C(=O)NCC(=O)N5CC(F)(F)C[C@H]5C#N)c4c3)cc12` [DO3A.Glu.(FAPI)2]: the tumor uptake in series [1] (labeled with gallium-68) is ~ 20%; in series [1] (labeled with lutetium-177) it was ~ 16%. Also, the IC50 is 0.6 ± 0.04 nM in series [2]; 1000 ± 140 nM in series [3]; 540 ± 60 nM in series [4]; 1030 ± 180 nM in series [5]; 950 ± 110 nM in series [6].

Regarding `N#C[C@@H]1CC(F)(F)CN1C(=O)CNC(=O)c1ccnc2ccc(OCCCCNC(=O)CC[C@H](NC(=O)CCC(C(=O)O)N3CCN(CC(=O)O)CCN(CC(=O)O)CCN(CC(=O)O)CC3)C(=O)NCCCCOc3ccc4nccc(C(=O)NCC(=O)N5CC(F)(F)C[C@H]5C#N)c4c3)cc12` (some centres unmarked) [DOTAGA.Glu.(FAPI)2], the tumor uptake is recorded as ~ 20% in series [1] (labeled with gallium-68) and ~ 16% in series [1] (labeled with lutetium-177). In addition, the IC50 was 0.26 ± 0.04 nM in series [2]; 590 ± 100 nM in series [3]; 1190 ± 80 nM in series [4]; 29 ± 4 nM in series [5]; 83 ± 1.5 nM in series [6].
